According to US10576062B2, “Carbamoyloxymethyl triazole cyclohexyl acids as LPA antagonists” (Bristol-Myers Squibb Company, priority 2016, dated 2020):

What follows are molecules tested against T1, human LPA1 (Homo sapiens, UniProt Q92633) (assay: LPA1 functional antagonist assay (LPA-induced calcium flux)). Details: CHO cells overexpressing human LPA1; inhibition of calcium flux induced by 10 nM LPA; read-out: hLPA1 IC50.
T1 construct: expressed in transfected cells; host or cells: Chinese hamster ovary (CHO) cells
Type: cell-based
Protocol: The effectiveness of compounds of the present invention as LPA1 inhibitors can be determined in an LPA1 functional antagonist assay as follows: Chinese hamster ovary cells overexpressing human LPA1 were plated overnight (15,000 cells/well) in poly-D-lysine coated 384-well microplates (Greiner bio-one, Cat #781946) in DMEM/F12 medium (Gibco, Cat #11039). Following overnight culture, cells were loaded with calcium indicator dye (AAT Bioquest Inc, Cat #34601) for 30 minutes at 37° C. The cells were then equilibrated to room temperature for 30 minutes before the assay. Test compounds solubilized in DMSO were transferred to 384 well non-binding surface plates (Corning, Cat #3575) using the Labcyte Echo acoustic dispense and diluted with assay buffer [1×HBSS with calcium/magnesium (Gibco Cat #14025-092), 20 mM HEPES (Gibco Cat #15630-080) and 0.1% fatty acid free BSA (Sigma Cat #A9205)] to a final concentration of 0.5% DMSO. Diluted compounds were added to the cells by FDSS6000 (Hamamatsu) at final concentrations ranging from 0.08 nM to 5 μM. and were then incubated for 20 min at room temperature at which time LPA (Avanti Polar Lipids Cat #857130C) was added at final concentrations of 10 nM to stimulate the cells. […] IC50 values were determined by fitting data to a 4-parameter logistic equation (GraphPad Prism, San Diego Calif.).

T1 sequence (Q92633 whole entry): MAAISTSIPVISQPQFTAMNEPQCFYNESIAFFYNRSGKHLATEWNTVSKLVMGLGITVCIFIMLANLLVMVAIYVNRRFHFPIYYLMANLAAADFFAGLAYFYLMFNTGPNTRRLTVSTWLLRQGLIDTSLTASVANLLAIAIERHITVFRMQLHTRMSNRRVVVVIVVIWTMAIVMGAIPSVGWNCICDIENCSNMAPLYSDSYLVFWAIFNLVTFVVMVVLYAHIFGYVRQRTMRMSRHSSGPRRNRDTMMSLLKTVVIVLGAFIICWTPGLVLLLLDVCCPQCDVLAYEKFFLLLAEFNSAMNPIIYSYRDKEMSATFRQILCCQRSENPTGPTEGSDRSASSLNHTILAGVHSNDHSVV

In order of rising IC50:
1. Cc1nc(-c2nnn(C)c2COC(=O)N(C)CC2CCC2)ccc1O[C@H]1CCC[C@](F)(C(=O)O)C1 (racemic) [Example 11, (rac)-3-((6-(5-((((cyclobutylmethyl)(methyl)carbamoyl)oxy)methyl)-1-methyl-1H-1,2,3-triazol-4-yl)-2-methylpyridin-3-yl)oxy)-1-fluorocyclohexane-1-carboxylic Acid]  0.012 µM
2. CCC(F)CN(C)C(=O)OCc1c(-c2ccc(O[C@H]3CCC[C@H](C(=O)O)C3)c(C)n2)nnn1C (mixture of isomers) [Example 255, (1S,3S)-3-((6-(5-((((2-fluorobutyl)(methyl)carbamoyl)oxy)methyl)-1-methyl-1H-1,2,3-triazol-4-yl)-2-methylpyridin-3-yl)oxy)cyclohexane-1-carboxylic acid]  0.057 µM
3. Cc1nc(-c2nnn(C)c2COC(=O)N(C)CC2CCC2)ccc1O[C@H]1CCC[C@](F)(C(=O)O)C1 (single isomer, unassigned) [Example 13, 3-((6-(5-((((cyclobutylmethyl)(methyl)carbamoyl)oxy)methyl)-1-methyl-1H-1,2,3-triazol-4-yl)-2-methylpyridin-3-yl)oxy)-1-fluorocyclohexane-1-carboxylic Acid]  0.095 µM
4. CCC(F)CN(C)C(=O)OCc1c(-c2cnc(O[C@H]3CCC[C@H](C(=O)O)C3)c(C)n2)nnn1C (mixture of isomers) [Example 254, (1S,3S)-3-((5-(5-((((2-fluorobutyl)(methyl)carbamoyl)oxy)methyl)-1-methyl-1H-1,2,3-triazol-4-yl)-3-methylpyrazin-2-yl)oxy)cyclohexane-1-carboxylic acid]  0.132 µM

Same assay, conditions: human LPA1; read-out: hLPA1 IC50

In order of rising IC50:
1. Cc1nc(-c2nnn(C)c2COC(=O)N(C)CC2CC2(C)C)ccc1O[C@H]1CCC[C@H](C(=O)O)C1 (mixture of isomers) [Example 184, (1S,3S)-3-((6-(5-(((((2,2-dimethylcyclopropyl)methyl)(methyl)carbamoyl)oxy)methyl)-1-methyl-1H-1,2,3-triazol-4-yl)-2-methylpyridin-3-yl)oxy)cyclohexane-1-carboxylic acid]  0.037 µM
2. Cc1nc(-c2nnn(C)c2COC(=O)N(C)C2CC(F)C2)ccc1O[C@H]1CCC[C@H](C(=O)O)C1 (mixture of isomers) [Example 182, (1S,3S)-3-((6-(5-((((3-fluorocyclobutyl)(methyl)carbamoyl)oxy)methyl)-1-methyl-1H-1,2,3-triazol-4-yl)-2-methylpyridin-3-yl)oxy)cyclohexane-1-carboxylic acid]  0.061 µM
3. CN(CC1CC1(F)F)C(=O)OCc1c(-c2ccc(O[C@H]3CCC[C@H](C(=O)O)C3)cn2)nnn1C (mixture of isomers) [Example 186, (1S,3S)-3-((6-(5-(((((2,2-difluorocyclopropyl)methyl)(methyl)carbamoyl)oxy)methyl)-1-methyl-1H-1,2,3-triazol-4-yl)pyridin-3-yl)oxy)cyclohexane-1-carboxylic acid]  0.067 µM
4. Cc1nc(-c2nnn(C)c2COC(=O)N2CCC(C3CC3)C2)ccc1O[C@H]1CCC[C@H](C(=O)O)C1 (mixture of isomers) [Example 164, (1S,3S)-3-((6-(5-(((3-cyclopropylpyrrolidine-1-carbonyl)oxy)methyl)-1-methyl-1H-1,2,3-triazol-4-yl)-2-methylpyridin-3-yl)oxy)cyclohexane-1-carboxylic acid]  0.083 µM
5. CN(CC1CC1(C)C)C(=O)OCc1c(-c2ccc(O[C@H]3CCC[C@H](C(=O)O)C3)cn2)nnn1C (mixture of isomers) [Example 185, (1S,3S)-3-((6-(5-(((((2,2-dimethylcyclopropyl)methyl)(methyl)carbamoyl)oxy)methyl)-1-methyl-1H-1,2,3-triazol-4-yl)pyridin-3-yl)oxy)cyclohexane-1-carboxylic acid]  0.086 µM
6. CCC1CCN(C(=O)OCc2c(-c3ccc(O[C@H]4CCC[C@H](C(=O)O)C4)c(C)n3)nnn2C)C1 (mixture of isomers) [Example 165, (1S,3S)-3-((6-(5-(((3-ethylpyrrolidine-1-carbonyl)oxy)methyl)-1-methyl-1H-1,2,3-triazol-4-yl)-2-methylpyridin-3-yl)oxy)cyclohexane-1-carboxylic acid]  0.102 µM
7. Cc1nc(-c2nnn(C)c2COC(=O)N2CCC(C(C)C)C2)ccc1O[C@H]1CCC[C@H](C(=O)O)C1 (mixture of isomers) [Example 163, (1S,3S)-3-((6-(5-(((3-isopropylpyrrolidine-1-carbonyl)oxy)methyl)-1-methyl-1H-1,2,3-triazol-4-yl)-2-methylpyridin-3-yl)oxy)cyclohexane-1-carboxylic acid]  0.104 µM
8. CCCC1CCN(C(=O)OCc2c(-c3ccc(O[C@H]4CCC[C@H](C(=O)O)C4)c(C)n3)nnn2C)C1 (mixture of isomers) [Example 166, (1S,3S)-3-((2-methyl-6-(1-methyl-5-(((3-propylpyrrolidine-1-carbonyl)oxy)methyl)-1H-1,2,3-triazol-4-yl)pyridin-3-yl)oxy)cyclohexane-1-carboxylic acid]  0.109 µM
9. Cc1nc(-c2nnn(C)c2COC(=O)N2CCCC(C)C2)ccc1O[C@H]1CCC[C@H](C(=O)O)C1 (mixture of isomers) [Example 161, (1S,3S)-3-((2-methyl-6-(1-methyl-5-(((3-methylpiperidine-1-carbonyl)oxy)methyl)-1H-1,2,3-triazol-4-yl)pyridin-3-yl)oxy)cyclohexane-1-carboxylic acid]  0.178 µM
10. Cc1nc(-c2nnn(C)c2COC(=O)N2CCC(c3ccccc3)C2)ccc1O[C@H]1CCC[C@H](C(=O)O)C1 (mixture of isomers) [Example 169, (1S,3S)-3-((2-methyl-6-(1-methyl-5-(((3-phenylpyrrolidine-1-carbonyl)oxy)methyl)-1H-1,2,3-triazol-4-yl)pyridin-3-yl)oxy)cyclohexane-1-carboxylic acid]  0.336 µM

Same assay, conditions: read-out: hLPA1 IC50

In order of falling IC50:
1. CCCN(C)C(=O)OCc1c(-c2ccc(O[C@H]3CCC[C@H](C(=O)O)C3)cc2)nnn1C (racemic) [Example 59, (rac)-trans-3-(4-(1-methyl-5-(((methyl(propyl)carbamoyl)oxy)methyl)-1H-1,2,3-triazol-4-yl)phenoxy)cyclohexane-1-carboxylic acid]  1.88 µM
2. Cc1nc(-c2nnn(C)c2COC(=O)N2CCC2C)ccc1O[C@H]1CCC[C@H](C(=O)O)C1 (mixture of isomers) [Example 157, (1S,3S)-3-((2-methyl-6-(1-methyl-5-(((2-methylazetidine-1-carbonyl)oxy)methyl)-1H-1,2,3-triazol-4-yl)pyridine-3-yl)oxy)cyclohexane-1-carboxylic acid]  0.529 µM
3. CN(CC1CC1)C(=O)OCc1c(-c2ccc(O[C@H]3CCC[C@H](C(=O)O)C3)cc2)nnn1C (racemic) [Example 61, (rac)-trans-3-(4-(5-((((cyclopropylmethyl)(methyl)carbamoyl)oxy)methyl)-1-methyl-1H-1,2,3-triazol-4-yl)phenoxy)cyclohexane-1-carboxylic acid]  0.273 µM
4. CCCCCN(C)C(=O)OCc1c(-c2ccc(O[C@H]3CCC[C@H](C(=O)O)C3)cc2)nnn1C (racemic) [Example 58, (rac)-trans-3-(4-(1-methyl-5-(((methyl(pentyl)carbamoyl)oxy)methyl)-1H-1,2,3-triazol-4-yl)phenoxy)cyclohexane-1-carboxylic acid]  0.25 µM
5. CN(Cc1ccccc1)C(=O)OCc1c(-c2ccc(O[C@H]3CCC[C@H](C(=O)O)C3)cc2)nnn1C (racemic) [Example 60, (rac)-trans-3-(4-(5-(((benzyl(methyl)carbamoyl)oxy)methyl)-1-methyl-1H-1,2,3-triazol-4-yl)phenoxy)cyclohexane-1-carboxylic acid]  0.13 µM
6. CN(CCC1CC1)C(=O)OCc1c(-c2ccc(O[C@H]3CCC[C@H](C(=O)O)C3)cc2)nnn1C (racemic) [Example 55, (rac)-trans-3-(4-(5-((((2-cyclopropylethyl)(methyl)carbamoyl)oxy)methyl)-1-methyl-1H-1,2,3-triazol-4-yl)phenoxy)cyclohexane-1-carboxylic acid]  0.041 µM
7. CCCCN(C)C(=O)OCc1c(-c2ccc(O[C@H]3CCC[C@H](C(=O)O)C3)cc2)nnn1C (racemic) [Example 64, (rac)-trans-3-(4-(5-(((butyl(methyl)carbamoyl)oxy)methyl)-1-methyl-1H-1,2,3-triazol-4-yl)phenoxy)cyclohexane-1-carboxylic acid]  0.032 µM
8. Cc1nc(-c2nnn(C)c2COC(=O)N(C)C2CCCC2)ccc1O[C@H]1CCC[C@](F)(C(=O)O)C1 (racemic) [Example 88]  0.032 µM
9. CN(C(=O)OCc1c(-c2ccc(O[C@H]3CCC[C@](F)(C(=O)O)C3)cn2)nnn1C)C1CCCC1 (racemic) [Example 89]  0.032 µM
10. CN(C(=O)OCc1c(-c2ccc(O[C@H]3CCC[C@H](C(=O)O)C3)cn2)nnn1C)C1CCCC1 (racemic) [Example 18, (rac)-3-((6-(5-(((cyclopentyl(methyl)carbamoyl)oxy)methyl)-1-methyl-1H-1,2,3-triazol-4-yl)pyridin-3-yl)oxy)cyclohexane-1-carboxylic acid]  0.021 µM
11. CN(CC1CCC1)C(=O)OCc1c(-c2ccc(O[C@H]3CCC[C@](F)(C(=O)O)C3)cn2)nnn1C (racemic) [Example 90]  0.014 µM
